Where “and” joins values, the source holds several entries; their conditions need not be identical. Identical values can stand only once.
Columns and labels:
[1] = system: Zygosaccharomyces rouxii strain, Y-229, and Torulaspora delbruckii strain, Y-866; assay: yeast challenge in dark chocolate sauce, yeast enumeration; assay type: cell-based
Method: (§1) The treatments were prepared by dissolving the spray dried fermentate in 15 ml sterile water and then mixed into the sauce using sterile hand whisks. One of the L. reuteri fermentate treatments was incubated for 30 minutes in a water bath set at 60° C. prior to addition to the chocolate sauce to determine how heat would affect the treatment since traditional manufacturing of the chocolate sauce includes a heating step.
(§2) All jars were then inoculated with a dual yeast challenge of Zygosaccharomyces rouxii strain, Y-229, and Torulaspora delbruckii strain, Y-866, which were both obtained from the ARS NRRL Culture Collection. The yeast strains were grown in Potato Dextrose broth at 32° C. overnight, then diluted in sterile water to approximately 2.0×10^5 CFU/ml. The two strains were then combined and 5 ml of the combination culture was added to each jar to provide a challenge dose of approximately 1.0×10^3 CFU/ml.
(§3) A 10-gram sample was removed from each jar immediately after challenge inoculation to analyze the pH and the initial yeast count in duplicate on Potato Dextrose Agar acidified with 10% Tartaric Acid (PDA4-TA) as well as the total aerobic plate count (APC) in duplicate on Tryptic Soy Agar (TSA). Once solidified, the PDA+TA plates were incubated at 28° C. for 72 hours and the TSA plates were incubated at 32° C. for 48 hours, then counted to determine CFU/g. The jars were kept at room temperature (˜20-22° C.) in a dark cabinet for the first 21 days, then moved to an incubator set at 28° C. for the duration of the study. On days 4, 7, 11, 14, 18, 21, 28, 35, 49, 56, 63, 94, 109, and 124, a 10-gram sample was removed from each jar to analyze the change in pH, as well as the yeast and APC levels in duplicate as described above.

[2] = system: total aerobic plate count (APC); assay: total aerobic plate count (APC) in dark chocolate sauce; assay type: cell-based
Method: as §1, §2, §3

SMILES: C/C=C/C=C/C(=O)[O-].[K+] [Potassium sorbate]
- day at which resurgence of yeast started ([1]; dark chocolate sauce): 49 days
- day at which yeast levels were no longer detectable (<10 CFU/g) ([1]; dark chocolate sauce): 35 days
- Enumeration of yeast in dark chocolate sauce, AVG ([1]; day 0): 2.00E+03 CFU/g
- Enumeration of yeast in dark chocolate sauce, duplicate counts ([1]; day 0): 1.73E+03 CFU/g and 2.27E+03 CFU/g
- Enumeration of yeast in dark chocolate sauce, AVG ([1]; day 4): 1.23E+03 CFU/g
- Enumeration of yeast in dark chocolate sauce, duplicate counts ([1]; day 4): 9.49E+02 CFU/g and 1.51E+03 CFU/g
- Enumeration of yeast in dark chocolate sauce, AVG ([1]; day 7): 9.08E+02 CFU/g
- Enumeration of yeast in dark chocolate sauce, duplicate counts ([1]; day 7): 6.43E+02 CFU/g and 1.17E+03 CFU/g
- Enumeration of yeast in dark chocolate sauce, AVG ([1]; day 11): 1.02E+03 CFU/g
- Enumeration of yeast in dark chocolate sauce, duplicate counts ([1]; day 11): 1.10E+03 CFU/g and 9.43E+02 CFU/g
- Enumeration of yeast in dark chocolate sauce, AVG ([1]; day 14): 5.48E-02 CFU/g
- Enumeration of yeast in dark chocolate sauce, duplicate counts ([1]; day 14): 4.99E+02 CFU/g and 5.98E+02 CFU/g
- Enumeration of yeast in dark chocolate sauce, AVG ([1]; day 18): 3.30E+02 CFU/g
- Enumeration of yeast in dark chocolate sauce, AVG ([1]; day 21): 2.06E+02 CFU/g
- Enumeration of yeast in dark chocolate sauce, AVG ([1]; day 28): 1.26E+02 CFU/g
- Enumeration of yeast in dark chocolate sauce, duplicate counts ([1]; day 28): 1.51E+02 CFU/g and 1.00E+02 CFU/g
- Enumeration of yeast in dark chocolate sauce, AVG ([1]; day 35): <10 CFU/g
- Enumeration of yeast in dark chocolate sauce, duplicate counts ([1]; day 35): <10 CFU/g
- Enumeration of yeast in dark chocolate sauce, AVG ([1]; day 49): 1.53E+01 CFU/g
- Enumeration of yeast in dark chocolate sauce, AVG ([1]; day 56): <10 CFU/g
- Enumeration of yeast in dark chocolate sauce, duplicate counts ([1]; day 56): <10 CFU/g
- Enumeration of yeast in dark chocolate sauce, AVG ([1]; day 63): <10 CFU/g
- Enumeration of yeast in dark chocolate sauce, duplicate counts ([1]; day 63): <10 CFU/g
- Enumeration of yeast in dark chocolate sauce, AVG ([1]; day 94): 3.71E+02 CFU/g
- Enumeration of yeast in dark chocolate sauce, duplicate counts ([1]; day 94): 3.07E+02 CFU/g and 4.35E+02 CFU/g
- Enumeration of yeast in dark chocolate sauce, AVG ([1]; day 109): 1.50E+02 CFU/g
- Enumeration of yeast in dark chocolate sauce, AVG ([1]; day 124): 1.21E+04 CFU/g
- Enumeration of yeast in dark chocolate sauce, duplicate counts ([1]; day 124): 1.25E+04 CFU/g and 1.17E+04 CFU/g
- APC, CFU/g (duplicate counts) ([2]; day 0): 2.83E+03 CFU/g and 2.94E+03 CFU/g
- APC, AVG ([2]; day 0, average of duplicate counts): 2.89E+03 CFU/g
- APC, CFU/g (duplicate counts) ([2]; day 4): 2.57E+03 CFU/g and 2.96E+03 CFU/g
- APC, AVG ([2]; day 4, average of duplicate counts): 2.77E+03 CFU/g
- APC, CFU/g (duplicate counts) ([2]; day 7): 2.47E+03 CFU/g and 3.12E+03 CFU/g
- APC, AVG ([2]; day 7, average of duplicate counts): 2.79E+03 CFU/g
- APC, CFU/g (duplicate counts) ([2]; day 11): 2.24E+03 CFU/g and 2.49E+03 CFU/g
- APC, AVG ([2]; day 11, average of duplicate counts): 2.36E+03 CFU/g
- APC, CFU/g (duplicate counts) ([2]; day 14): 1.59E+03 CFU/g and 2.13E+03 CFU/g
- APC, AVG ([2]; day 14, average of duplicate counts): 1.86E+03 CFU/g
- APC, CFU/g (duplicate counts) ([2]; day 18): 1.44E+03 CFU/g and 1.56E+03 CFU/g
- APC, AVG ([2]; day 18, average of duplicate counts): 1.50E+03 CFU/g
- APC, CFU/g (duplicate counts) ([2]; day 21): 1.13E+03 CFU/g and 1.31E+03 CFU/g
- APC, AVG ([2]; day 21, average of duplicate counts): 1.22E+03 CFU/g
- APC, CFU/g (duplicate counts) ([2]; day 28): 8.53E+02 CFU/g and 9.84E+02 CFU/g
- APC, AVG ([2]; day 28, average of duplicate counts): 9.19E+02 CFU/g
- APC, CFU/g (duplicate counts) ([2]; day 35): 7.22E+02 CFU/g and 6.82E+02 CFU/g
- APC, AVG ([2]; day 35, average of duplicate counts): 7.02E+02 CFU/g
- APC, CFU/g (duplicate counts) ([2]; day 49): 6.85E+02 CFU/g and 6.14E+02 CFU/g
- APC, AVG ([2]; day 49, average of duplicate counts): 6.50E+02 CFU/g
- APC, CFU/g (duplicate counts) ([2]; day 56): 5.72E+02 CFU/g and 3.71E+02 CFU/g
- APC, AVG ([2]; day 56, average of duplicate counts): 4.71E+02 CFU/g
- APC, CFU/g (duplicate counts) ([2]; day 63): 5.89E+02 CFU/g and 6.79E+02 CFU/g
- APC, AVG ([2]; day 63, average of duplicate counts): 6.34E+02 CFU/g
- APC, CFU/g (duplicate counts) ([2]; day 94): 5.54E+02 CFU/g and 7.62E+02 CFU/g
- APC, AVG ([2]; day 94, average of duplicate counts): 6.58E+02 CFU/g
- APC, CFU/g (duplicate counts) ([2]; day 109): 6.36E+02 CFU/g and 5.52E+02 CFU/g
- APC, AVG ([2]; day 109, average of duplicate counts): 5.94E+02 CFU/g
- APC, CFU/g (duplicate counts) ([2]; day 124): 2.52E+02 CFU/g and 3.78E+02 CFU/g
- APC, AVG ([2]; day 124, average of duplicate counts): 3.15E+02 CFU/g
